According to ChEMBL document CHEMBL3045771, “Structure-Activity Relationships of Enantiomers of the Azole Fungicide Ipconazole and Its Related Compounds” (1998):
Values after ≈ are worked out from the molar mass of the structure shown.

What was measured:
Assay type in all cases: functional
Cercospora beticola = test: Antifungal activity against Cercospora beticola on potato sucrose agar medium at 28 or 20 degC for 2 or 3 days
Alternaria mali = test: Antifungal activity against Alternaria mali on potato sucrose agar medium at 28 or 20 degC for 2 or 3 days
Cucumis sativus = test: Inhibition of Cucumis sativus (cucumber) growth assessed as stem length of first leaf of seedlings measured as growth rate at 125 ug/ml for 24 hr relative to control; set-up: scale not given: the % may be the effect or the level left
Bipolaris oryzae = test: Antifungal activity against Bipolaris oryzae on potato sucrose agar medium at 28 or 20 degC for 2 or 3 days
Triticum aestivum = test: Inhibition of Triticum aestivum (wheat) Nourin 64 growth assessed as first leaf sheath length of seedlings measured as growth rate at 125 ug/ml for 24 hr relative to control; set-up: scale not given: the % may be the effect or the level left
Fusarium fujikuroi = test: Antifungal activity against Fusarium fujikuroi on potato sucrose agar medium at 28 or 20 degC for 2 or 3 days
[1] = test system: Colletotrichum gloeosporioides; test: Antifungal activity against Glomerella cingulata on potato sucrose agar medium at 28 or 20 degC for 2 or 3 days
Rhizoctonia solani = test: Antifungal activity against Rhizoctonia solani on potato sucrose agar medium at 28 or 20 degC for 2 or 3 days
[2] = test system: Fusarium oxysporum f. sp. cucumerinum; test: Antifungal activity against Fusarium oxysporum f. sp. cucumerinum on potato sucrose agar medium at 28 or 20 degC for 2 or 3 days
Colletotrichum lagenaria = test: Antifungal activity against Colletotrichum lagenaria on potato sucrose agar medium at 28 or 20 degC for 2 or 3 days
Pyricularia oryzae = test: Antifungal activity against Magnaporthe oryzae on potato sucrose agar medium at 28 or 20 degC for 2 or 3 days
Monilinia fructicola = test: Antifungal activity against Monilinia fructicola on potato sucrose agar medium at 28 or 20 degC for 2 or 3 days
Sclerotinia sclerotiorum = test: Antifungal activity against Sclerotinia sclerotiorum on potato sucrose agar medium at 28 or 20 degC for 2 or 3 days
Botrytis cinerea = test: Antifungal activity against Botryotinia fuckeliana on potato sucrose agar medium at 28 or 20 degC for 2 or 3 days

O[C@]1(Cn2cncn2)CCC[C@@H]1Cc1ccc(Cl)cc1
MIC (Cercospora beticola): > 100 µg/mL
MIC (Alternaria mali): > 100 µg/mL
Activity (Cucumis sativus): 80%
MIC (Bipolaris oryzae): 25 µg/mL (≈ 85.7 µM)
Activity (Triticum aestivum): 41%
MIC (Fusarium fujikuroi): 13 µg/mL (≈ 44.6 µM)
MIC [1]: 25 µg/mL (≈ 85.7 µM)
MIC (Rhizoctonia solani): > 100 µg/mL
MIC [2]: > 100 µg/mL
MIC (Colletotrichum lagenaria): > 100 µg/mL
MIC (Pyricularia oryzae): 6.3 µg/mL (≈ 21.6 µM)
MIC (Monilinia fructicola): < 0.2 µg/mL
MIC (Sclerotinia sclerotiorum): 13 µg/mL (≈ 44.6 µM)
MIC (Botrytis cinerea): 3.1 µg/mL (≈ 10.6 µM)

CC(C)[C@@H]1CC[C@H](Cc2ccc(Cl)cc2)[C@@]1(O)Cn1cncn1
MIC (Cercospora beticola): 25 µg/mL (≈ 74.9 µM)
MIC (Alternaria mali): 6.3 µg/mL (≈ 18.9 µM)
Activity (Cucumis sativus): 118%
MIC (Bipolaris oryzae): 13 µg/mL (≈ 38.9 µM)
Activity (Triticum aestivum): 105%
MIC (Fusarium fujikuroi): 0.2 µg/mL (≈ 0.599 µM)
MIC [1]: 1.6 µg/mL (≈ 4.79 µM)
MIC (Rhizoctonia solani): 13 µg/mL (≈ 38.9 µM)
MIC [2]: 3.1 µg/mL (≈ 9.29 µM)
MIC (Colletotrichum lagenaria): 0.8 µg/mL (≈ 2.4 µM)
MIC (Pyricularia oryzae): 3.1 µg/mL (≈ 9.29 µM)
MIC (Monilinia fructicola): < 0.2 µg/mL
MIC (Sclerotinia sclerotiorum): < 0.2 µg/mL
MIC (Botrytis cinerea): 0.2 µg/mL (≈ 0.599 µM)

CC(C)[C@H]1CC[C@H](Cc2ccc(Cl)cc2)[C@@]1(O)Cn1cncn1
MIC (Cercospora beticola): 13 µg/mL (≈ 38.9 µM)
MIC (Alternaria mali): 3.1 µg/mL (≈ 9.29 µM)
Activity (Cucumis sativus): 113%
MIC (Bipolaris oryzae): 13 µg/mL (≈ 38.9 µM)
Activity (Triticum aestivum): 96%
MIC (Fusarium fujikuroi): 0.2 µg/mL (≈ 0.599 µM)
MIC [1]: 0.4 µg/mL (≈ 1.2 µM)
MIC (Rhizoctonia solani): 100 µg/mL (≈ 300 µM)
MIC [2]: 0.4 µg/mL (≈ 1.2 µM)
MIC (Colletotrichum lagenaria): < 0.2 µg/mL
MIC (Pyricularia oryzae): 1.6 µg/mL (≈ 4.79 µM)
MIC (Monilinia fructicola): < 0.2 µg/mL
MIC (Sclerotinia sclerotiorum): 0.8 µg/mL (≈ 2.4 µM)
MIC (Botrytis cinerea): 0.4 µg/mL (≈ 1.2 µM)

CC(C)[C@H]1CC[C@@H](Cc2ccc(Cl)cc2)[C@]1(O)Cn1cncn1
MIC (Cercospora beticola): > 100 µg/mL
MIC (Alternaria mali): > 100 µg/mL
Activity (Cucumis sativus): 117%
MIC (Bipolaris oryzae): 50 µg/mL (≈ 150 µM)
Activity (Triticum aestivum): 109%
MIC (Fusarium fujikuroi): > 100 µg/mL
MIC [1]: 25 µg/mL (≈ 74.9 µM)
MIC (Rhizoctonia solani): 100 µg/mL (≈ 300 µM)
MIC [2]: > 100 µg/mL
MIC (Colletotrichum lagenaria): > 100 µg/mL
MIC (Pyricularia oryzae): 100 µg/mL (≈ 300 µM)
MIC (Monilinia fructicola): < 0.2 µg/mL
MIC (Sclerotinia sclerotiorum): 50 µg/mL (≈ 150 µM)
MIC (Botrytis cinerea): 25 µg/mL (≈ 74.9 µM)

CC(C)[C@@H]1CC[C@@H](Cc2ccc(Cl)cc2)[C@]1(O)Cn1cncn1
MIC (Cercospora beticola): > 100 µg/mL
MIC (Alternaria mali): > 100 µg/mL
Activity (Cucumis sativus): 104%
MIC (Bipolaris oryzae): 50 µg/mL (≈ 150 µM)
Activity (Triticum aestivum): 92%
MIC (Fusarium fujikuroi): > 100 µg/mL
MIC [1]: 25 µg/mL (≈ 74.9 µM)
MIC (Rhizoctonia solani): > 100 µg/mL
MIC [2]: > 100 µg/mL
MIC (Colletotrichum lagenaria): 50 µg/mL (≈ 150 µM)
MIC (Pyricularia oryzae): 13 µg/mL (≈ 38.9 µM)
MIC (Monilinia fructicola): < 0.2 µg/mL
MIC (Sclerotinia sclerotiorum): > 100 µg/mL
MIC (Botrytis cinerea): 25 µg/mL (≈ 74.9 µM)

O[C@@]1(Cn2cncn2)CCC[C@H]1Cc1ccc(Cl)cc1
MIC (Cercospora beticola): > 100 µg/mL
MIC (Alternaria mali): > 100 µg/mL
Activity (Cucumis sativus): 90%
MIC (Bipolaris oryzae): > 100 µg/mL
Activity (Triticum aestivum): 94%
MIC (Fusarium fujikuroi): > 100 µg/mL
MIC [1]: > 100 µg/mL
MIC (Rhizoctonia solani): > 100 µg/mL
MIC [2]: > 100 µg/mL
MIC (Colletotrichum lagenaria): > 100 µg/mL
MIC (Pyricularia oryzae): 100 µg/mL (≈ 343 µM)
MIC (Monilinia fructicola): 13 µg/mL (≈ 44.6 µM)
MIC (Sclerotinia sclerotiorum): > 100 µg/mL
MIC (Botrytis cinerea): > 100 µg/mL

C[C@H]1CC[C@@H](Cc2ccc(Cl)cc2)[C@]1(O)Cn1cncn1
MIC (Cercospora beticola): > 100 µg/mL
MIC (Alternaria mali): > 100 µg/mL
Activity (Cucumis sativus): 97%
MIC (Bipolaris oryzae): > 100 µg/mL
Activity (Triticum aestivum): 92%
MIC (Fusarium fujikuroi): > 100 µg/mL
MIC [1]: > 100 µg/mL
MIC (Rhizoctonia solani): > 100 µg/mL
MIC [2]: > 100 µg/mL
MIC (Colletotrichum lagenaria): > 100 µg/mL
MIC (Pyricularia oryzae): 50 µg/mL (≈ 164 µM)
MIC (Monilinia fructicola): 13 µg/mL (≈ 42.5 µM)
MIC (Sclerotinia sclerotiorum): > 100 µg/mL
MIC (Botrytis cinerea): 100 µg/mL (≈ 327 µM)

C[C@@H]1CC[C@H](Cc2ccc(Cl)cc2)[C@@]1(O)Cn1cncn1
MIC (Cercospora beticola): > 100 µg/mL
MIC (Alternaria mali): > 100 µg/mL
Activity (Cucumis sativus): 43%
MIC (Bipolaris oryzae): 25 µg/mL (≈ 81.8 µM)
Activity (Triticum aestivum): 38%
MIC (Fusarium fujikuroi): 3.1 µg/mL (≈ 10.1 µM)
MIC [1]: 13 µg/mL (≈ 42.5 µM)
MIC (Rhizoctonia solani): > 100 µg/mL
MIC [2]: > 100 µg/mL
MIC (Colletotrichum lagenaria): 100 µg/mL (≈ 327 µM)
MIC (Pyricularia oryzae): 3.1 µg/mL (≈ 10.1 µM)
MIC (Monilinia fructicola): < 0.2 µg/mL
MIC (Sclerotinia sclerotiorum): 3.1 µg/mL (≈ 10.1 µM)
MIC (Botrytis cinerea): 3.1 µg/mL (≈ 10.1 µM)

CC[C@H]1CC[C@@H](Cc2ccc(Cl)cc2)[C@]1(O)Cn1cncn1
MIC (Cercospora beticola): > 100 µg/mL
MIC (Alternaria mali): > 100 µg/mL
Activity (Cucumis sativus): 98%
MIC (Bipolaris oryzae): 50 µg/mL (≈ 156 µM)
Activity (Triticum aestivum): 77%
MIC (Fusarium fujikuroi): > 100 µg/mL
MIC [1]: 25 µg/mL (≈ 78.2 µM)
MIC (Rhizoctonia solani): 100 µg/mL (≈ 313 µM)
MIC [2]: > 100 µg/mL
MIC (Colletotrichum lagenaria): 50 µg/mL (≈ 156 µM)
MIC (Pyricularia oryzae): 25 µg/mL (≈ 78.2 µM)
MIC (Monilinia fructicola): 1.6 µg/mL (≈ 5 µM)
MIC (Sclerotinia sclerotiorum): 100 µg/mL (≈ 313 µM)
MIC (Botrytis cinerea): 25 µg/mL (≈ 78.2 µM)
